The term melting point denotes the temperature of the solid-liquid transition. As for `C[C@@H](Nc1ncnc2[nH]c(-c3ccc(CN4CCNCC4)cc3)cc12)c1ccccc1` [Example 1, ((R)-1-Phenyl-ethyl)-[6-(4-piperazin-1-ylmethyl-phenyl)-7H-pyrrolo[2,3-d]pyrimidin-4-yl]-amine], the melting point was in the range of 240 to 242 °C.

(Values after US20090247548A1, “PYRROLOPYRIMIDINE DERIVATIVES FOR TREATING PROLIFERATIVE DISEASES” (priority 2004, published 2009).)
